Results published in ChEMBL document CHEMBL2321805, “N-methyldihydroquinazolinone derivatives of Retro-2 with enhanced efficacy against Shiga toxin” (J Med Chem, 2013).
pEC50: −log10 of the molar value. The source made the active and inactive calls. The rule behind the calls is not given here.

What follows are compounds tested on HeLa (assay: Cytoprotective activity against shiga toxin-induced cytotoxicity in human HeLa cells at 30 uM incubated for 4 hrs prior to shiga toxin addition measured after 20 hrs by liquid scintillation counting analysis relative to Retro-2).
Type: functional
With `Cc1ccc(C2Nc3ccccc3C(=O)N2[C@H]2C[C@@H]3CC[C@H]2C3)s1` (mixture of isomers) the Activity was 0%. With `Cn1cc(C2Nc3ccccc3C(=O)N2c2ccccc2)c2ccccc21` (racemic) the Activity was 0%. `Cc1ccc(C2N(C)c3ccccc3C(=O)N2c2ccccc2S(=O)(=O)c2ccccc2)s1` (racemic) was tested, and the Activity was 145%. In the case of `Cc1ccc(C2N(C)c3ccccc3C(=O)N2c2ccccc2[N+](=O)[O-])s1` (racemic), the Activity was 33%. `CN1c2ccccc2C(=O)N(c2ccccc2)C1c1ccc(C=O)s1` (racemic) showed an Activity of 0%. Work on `CN1c2ccccc2C(=O)N(c2ccccc2)C1c1ccc(CO)s1` (racemic) yielded an Activity of 0%. `Cc1ccc(C2Nc3ccc(F)cc3C(=O)N2c2ccccc2)s1` (racemic) was tested, and the Activity was 167.2%. With `Cc1ccc(C2Nc3cc(F)ccc3C(=O)N2c2ccccc2)s1` (racemic) the Activity was 0%. With `Cc1ccc(C2N(c3ccccc3)C(=O)c3ccccc3N2C(=O)c2ccccc2)s1` (racemic) the Activity was 0%. `Cc1ccc(C2N(Cc3ccccc3)c3ccccc3C(=O)N2c2ccccc2)s1` (racemic) gave an Activity of 1%. In the case of `CCN1c2ccccc2C(=O)N(c2ccccc2)C1c1ccc(C)s1` (racemic), the Activity was 2.9%. For `CCCN1c2ccccc2C(=O)N(c2ccccc2)C1c1ccc(C)s1` (racemic), the Activity was 0%. Compound `CCCCN1c2ccccc2C(=O)N(c2ccccc2)C1c1ccc(C)s1` (racemic) has an Activity of 0%. Work on `O=C1c2ccccc2NC(c2ccccc2)N1c1ccccc1` (racemic) yielded an Activity of 0%. In the case of `COc1cccc(C2Nc3ccccc3C(=O)N2c2ccccc2)c1` (racemic), the Activity was 0%. For `COc1ccc(C2Nc3ccccc3C(=O)N2c2ccccc2)cc1` (racemic), the Activity was 10%. `CN(C)c1ccc(C2Nc3ccccc3C(=O)N2c2ccccc2)cc1` (racemic) showed an Activity of 48%. `O=C1c2ccccc2NC(c2cccnc2)N1c1ccccc1` (racemic) gave an Activity of 0%. In the case of `O=C1c2ccccc2NC(c2cccs2)N1c1ccccc1` (racemic), the Activity was 0%. `O=C1c2ccccc2NC(c2ccc(Br)s2)N1c1ccccc1` (racemic) showed an Activity of 146%. `CSc1ccc(C2Nc3ccccc3C(=O)N2c2ccccc2)s1` (racemic) was tested, and the Activity was 249%. In the case of `O=C1c2ccccc2NC(c2ccc(-c3cccs3)s2)N1c1ccccc1` (racemic), the Activity was 111.6%. Work on `O=C1c2ccccc2NC(c2ccc(-c3ccccn3)s2)N1c1ccccc1` (racemic) yielded an Activity of 468%. Compound `O=C1c2ccccc2NC(c2ccc(-c3ccco3)s2)N1c1ccccc1` (racemic) has an Activity of 438%. `Cc1ccc(C2Nc3ccccc3C(=O)N2C23CC4CC(CC(O)(C4)C2)C3)s1` (racemic) showed an Activity of 0%. With `Cc1ccc(C2Nc3ccccc3C(=O)N2Cc2ccccc2)s1` (racemic) the Activity was 0%. For `Cc1ccc(C2Nc3ccccc3C(=O)N2C2CCCCC2)s1` (racemic), the Activity was 0%. `CCCCN1C(=O)c2ccccc2NC1c1ccc(C)s1` (racemic) gave an Activity of 0%. For `CCC(C)N1C(=O)c2ccccc2NC1c1ccc(C)s1` (racemic), the Activity was 0%. `Cc1ccc(C2Nc3ccccc3C(=O)N2C(C)C)s1` (racemic) gave an Activity of 0%. Work on `COc1ccc(CCN2C(=O)c3ccccc3NC2c2ccc(C)s2)cc1` (racemic) yielded an Activity of 0%. Compound `Cc1ccc(C2Nc3ccccc3C(=O)N2c2ccc(-c3ccccc3)cc2)s1` (racemic) has an Activity of 0%. For `Cc1ccc(C2Nc3ccccc3C(=O)N2c2ccc(C#N)cc2)s1` (racemic), the Activity was 0%. `Cc1ccc(C2Nc3ccccc3C(=O)N2c2cccc(C(F)(F)F)c2)s1` (racemic) was tested, and the Activity was 0%. Work on `Cc1ccc(C2Nc3ccccc3C(=O)N2c2cccnc2)s1` (racemic) yielded an Activity of 0%. `CN1c2ccccc2C(=O)N(c2ccccc2)C1c1ccc(CNCc2ccccc2)s1` (racemic) showed an Activity of 6.2%. Work on `CN1c2ccccc2C(=O)N(c2ccccc2)C1c1ccc(CCl)s1` (racemic) yielded an Activity of 0%. With `CSc1ccc(C2N(C)c3ccccc3C(=O)N2c2ccccc2)s1` (racemic) the Activity was 265.9%. `CN1c2ccccc2C(=O)N(c2ccccc2)C1c1ccc(Sc2ccccc2)s1` (racemic) gave an Activity of 75.5%. With `CN1c2ccccc2C(=O)N(c2ccccc2)C1c1ccc(C#N)s1` (racemic) the Activity was 0%. In the case of `COc1ccc(-c2ccc(C3N(C)c4ccccc4C(=O)N3c3ccccc3)s2)cc1OC` (racemic), the Activity was 1.5%. In the case of `CN1c2ccccc2C(=O)N(c2ccccc2)C1c1ccc(-c2cccc([N+](=O)[O-])c2)s1` (racemic), the Activity was 0%. Work on `COC(=O)c1ccc(-c2ccc(C3N(C)c4ccccc4C(=O)N3c3ccccc3)s2)cc1` (racemic) yielded an Activity of 2.9%. In the case of `CC(=O)c1ccc(-c2ccc(C3N(C)c4ccccc4C(=O)N3c3ccccc3)s2)cc1` (racemic), the Activity was 0.7%. For `CN1c2ccccc2C(=O)N(c2ccccc2)C1c1ccc(-c2ccc(Oc3ccccc3)cc2)s1` (racemic), the Activity was 15.7%. `COc1cc(-c2ccc(C3N(C)c4ccccc4C(=O)N3c3ccccc3)s2)cc(OC)c1OC` (racemic) showed an Activity of 0%. `COc1ccc(-c2ccc(C3N(C)c4ccccc4C(=O)N3c3ccccc3)s2)cc1` (racemic) showed an Activity of 26.2%. With `Cc1ccc(-c2ccc(C3N(C)c4ccccc4C(=O)N3c3ccccc3)s2)cc1[N+](=O)[O-]` (racemic) the Activity was 0%. `CN1c2ccccc2C(=O)N(c2ccccc2)C1c1ccc(-c2ccc(C#N)cc2)s1` (racemic) was tested, and the Activity was 0%. `CN1c2ccccc2C(=O)N(c2ccccc2)C1c1ccc(-c2csc3ccccc23)s1` (racemic) showed an Activity of 0%. With `CN1c2ccccc2C(=O)N(c2ccccc2)C1c1ccc(-c2ccc3ccccc3c2)s1` (racemic) the Activity was 9.7%. `CN1c2ccccc2C(=O)N(c2ccccc2)C1c1ccc(-c2cccc3ccccc23)s1` (racemic) showed an Activity of 0%. Work on `CN1c2ccccc2C(=O)N(c2ccccc2)C1c1ccc(-c2ccc3[nH]ccc3c2)s1` (racemic) yielded an Activity of 0%. `CN1c2ccccc2C(=O)N(c2ccccc2)C1c1ccc(-c2ccccn2)s1` (racemic) gave an Activity of 94.6%. With `CN1c2ccccc2C(=O)N(c2ccccc2)C1c1ccc(-c2ccoc2)s1` (racemic) the Activity was 74.7%. For `CN1c2ccccc2C(=O)N(c2ccccc2)C1c1ccc(-c2cccs2)s1` (racemic), the Activity was 84%. `CN1c2ccccc2C(=O)N(c2ccccc2)C1c1ccc(-n2cccc2)s1` (racemic) was tested, and the Activity was 12%. In the case of `Cc1ccc(C2N(C)c3ccccc3C(=O)N2c2ccccc2Cl)s1` (racemic), the Activity was 230%. For `Cc1ccc(C2N(C)c3ccccc3C(=O)N2c2ccccc2I)s1` (racemic), the Activity was 254%. `COc1ccccc1N1C(=O)c2ccccc2N(C)C1c1ccc(C)s1` (racemic) showed an Activity of 264.4%. With `CSc1ccccc1N1C(=O)c2ccccc2N(C)C1c1ccc(C)s1` (racemic) the Activity was 150.6%. For `Cc1ccc(C2N(C)c3ccccc3C(=O)N2c2ccccc2F)s1` (racemic), the Activity was 208.6%. Work on `Cc1ccc(C2N(C)c3ccccc3C(=O)N2c2ccccc2Br)s1` (racemic) yielded an Activity of 10.5%. `Cc1ccc(C2N(C)c3ccccc3C(=O)N2c2ccccc2C#N)s1` (racemic) was tested, and the Activity was 54%. `Cc1ccc(C2N(C)c3ccccc3C(=O)N2c2ccccc2Oc2ccccc2)s1` (racemic) showed an Activity of 23%. `Cc1ccc(C2N(C)c3ccccc3C(=O)N2c2ccccc2Sc2ccccc2)s1` (racemic) gave an Activity of 9.6%. `Cc1ccc(C2N(C)c3ccccc3C(=O)N2c2ccccc2-c2ccccc2)s1` (racemic) showed an Activity of 99%. In the case of `Cc1ccc(C2N(C)c3ccccc3C(=O)N2c2ccccc2Cc2ccccc2)s1` (racemic), the Activity was 1%. `Cc1ccc(C2N(C)c3ccccc3C(=O)N2c2ccccc2C(F)(F)F)s1` (racemic) was tested, and the Activity was 3%. `Cc1ccc(C2N(C)c3ccccc3C(=O)N2c2ccccc2OC(F)(F)F)s1` (racemic) gave an Activity of 4.4%. `Cc1ccc(C2N(C)c3ccccc3C(=O)N2c2ccccc2OCc2ccccc2)s1` (racemic) gave an Activity of 9.8%. For `Cc1ccsc1C1Nc2ccccc2C(=O)N1c1ccccc1` (racemic), the Activity was 0%. `Cc1csc(C2Nc3ccccc3C(=O)N2c2ccccc2)c1` (racemic) was tested, and the Activity was 1%. Compound `CCCc1ccc(C2Nc3ccccc3C(=O)N2c2ccccc2)s1` (racemic) has an Activity of 54%. `Cc1ccc(C2Nc3ccccc3C(=O)N2c2ccncc2)s1` (racemic) showed an Activity of 0%. `Cc1ccc(C2Nc3ccccc3C(=O)N2c2ccncn2)s1` (racemic) was tested, and the Activity was 0.5%. With `Cc1ccc(C2Nc3ccccc3C(=O)N2c2ccc(Br)cc2)s1` (racemic) the Activity was 0%. Work on `Cc1ccc(C2Nc3ccccc3C(=O)N2c2cccc(Br)c2)s1` (racemic) yielded an Activity of 0%. Work on `Cc1ccc(C2Nc3ccccc3C(=O)N2c2ccccc2Br)s1` (racemic) yielded an Activity of 0%. `Cc1ccc(C2Nc3ccccc3C(=O)N2c2ccc(Cl)cc2)s1` (racemic) gave an Activity of 0%. `Cc1ccc(C2Nc3ccccc3C(=O)N2c2cccc(Cl)c2)s1` (racemic) was tested, and the Activity was 54%. `Cc1ccc(C2Nc3ccccc3C(=O)N2c2ccccc2Cl)s1` (racemic) gave an Activity of 211%. Compound `CSc1ccccc1N1C(=O)c2ccccc2NC1c1ccc(C)s1` (racemic) has an Activity of 75%. For `Cc1ccc(C2Nc3c(C)cccc3C(=O)N2c2ccccc2)s1` (racemic), the Activity was 4%. In the case of `Cc1ccc2c(c1)C(=O)N(c1ccccc1)C(c1ccc(C)s1)N2` (racemic), the Activity was 11.2%. `COc1ccc2c(c1)C(=O)N(c1ccccc1)C(c1ccc(C)s1)N2` (racemic) was tested, and the Activity was 2%. For `Cc1ccc(C2N(C)c3ccccc3C(=O)N2c2ccccc2)s1` (single isomer, unassigned; form 1), the Activity was “inactive”. In the case of `Cc1ccc(C2N(C)c3ccccc3C(=O)N2c2ccccc2)s1` (single isomer, unassigned; form 2), the Activity was “Active”.

What follows are compounds tested on HeLa (assay: Cytoprotective activity against shiga toxin-induced cytotoxicity in human HeLa cells at 30 uM incubated for 4 hrs prior to shiga toxin addition measured after 20 hrs by liquid scintillation counting analysis).
Type: functional, cell-based
With `Cc1ccc(C2N(C)c3ccccc3C(=O)N2c2ccccc2S(=O)(=O)c2ccccc2)s1` (racemic) the pEC50 was 5.10. With `Cc1ccc(C2Nc3ccc(F)cc3C(=O)N2c2ccccc2)s1` (racemic) the pEC50 was 4.97. In the case of `O=C1c2ccccc2NC(c2ccc(Br)s2)N1c1ccccc1` (racemic), the pEC50 was 4.86. `CSc1ccc(C2Nc3ccccc3C(=O)N2c2ccccc2)s1` (racemic) showed a pEC50 of 5.11. `O=C1c2ccccc2NC(c2ccc(-c3cccs3)s2)N1c1ccccc1` (racemic) gave a pEC50 of 5.29. In the case of `O=C1c2ccccc2NC(c2ccc(-c3ccccn3)s2)N1c1ccccc1` (racemic), the pEC50 was 4.92. Work on `O=C1c2ccccc2NC(c2ccc(-c3ccco3)s2)N1c1ccccc1` (racemic) yielded a pEC50 of 5.40. With `CSc1ccc(C2N(C)c3ccccc3C(=O)N2c2ccccc2)s1` (racemic) the pEC50 was 5.32. Compound `Cc1ccc(C2N(C)c3ccccc3C(=O)N2c2ccccc2Cl)s1` (racemic) has a pEC50 of 5.09. `Cc1ccc(C2N(C)c3ccccc3C(=O)N2c2ccccc2I)s1` (racemic) gave a pEC50 of 5.27. `COc1ccccc1N1C(=O)c2ccccc2N(C)C1c1ccc(C)s1` (racemic) gave a pEC50 of 5.27. With `CSc1ccccc1N1C(=O)c2ccccc2N(C)C1c1ccc(C)s1` (racemic) the pEC50 was 5.42. `Cc1ccc(C2N(C)c3ccccc3C(=O)N2c2ccccc2F)s1` (racemic) showed a pEC50 of 5.26. `Cc1ccc(C2Nc3ccccc3C(=O)N2c2ccccc2Cl)s1` (racemic) gave a pEC50 of 4.83.
